According to patent US12630520B2, “Left-handed bicyclic morpholine and salt thereof, preparation method therefor, pharmaceutical composition, and use” (Institute of Materia Medica, Chinese Academy of Medical …, priority 2019, dated 2026):

Assays:
HepG2 cells [1] = experiment: 4-Acetamidophenol (APAP)-induced in vitro hepatocyte injury, MTT and LDH; type: cell-based, human; conditions: HepG2, 10 μM, 8 mM APAP
Description: (§1) Human liver cancer HepG2 cell well retained the characteristics of normal human hepatocytes, and they were grown in a DMEM medium containing 10% of fetal calf cerium (containing 100 U/mL of penicillin and 100 μg/mL of streptomycin) at the culturing conditions: 37° C., 5% of CO2 and a saturated humidity. A solution containing 0.25% of trypsin and 0.02% of EDTA was used for digestions and passages.
(§2) A MTT method was adopted. The HepG2 cells were inoculated in a 96-well cell culture plate, and after 24 hour cultures, the (+)IMM-H014, the (−)IMM-H014 and the (±)IMM-H014 were added in a non-toxic concentration whilst the 4-acetamidophenol (APAP, a final concentration of 8 mM) was added thereto. A Bicyclol positive control group, a solvent control group and a model group were set for the experiment. The culture was continued for 24 h. 100 μL of the culture solution was taken and centrifuged, and a full-automatic biochemical analyzer in a LDH detection kit was utilized to detect the LDH level therein. The remaining culture solution was discarded, and to each well, 100 μL of a MTT (0.5 mg/mL) solution was added to continue the culture for 4 hours. The MTT solution was discarded, and to each well, 150 μL of DMSO was added. The mixture was oscillated by a mixing oscillator, and the absorbance value was measured at a wavelength of 570 nm in a microplate reader. Cell survival rate (%)=(OD mean of administration group/OD mean of solvent control group)×100%.
(§3) The data were presented as a number mean±standard deviation (x±SD).

HepG2 cells [2] = experiment: Carbon tetrachloride (CCl4)-induced in vitro hepatocyte injury, MTT; type: cell-based, human; conditions: HepG2, 10 μM
Description: as §1, with “cells” for “cell”
as §2, with “carbon tetrachloride (CCl4,” for “4-acetamidophenol (APAP,”, “0.6%)” for “8 mM)”, “They acted on the cells continuously” for “The culture was continued”, “h.” for “h. 100 μL of the culture solution was taken and centrifuged, and a full-automatic biochemical analyzer in a LDH detection kit was utilized to detect the LDH level therein.”, “The” for “The remaining”, “to” for “to continue the”
as §3

## COC(=O)c1cc(OC)c2c(c1-c1c(CO)cc(OC)c3c1OCO3)OCO2 [Bicyclol]
HepG2 cells [1]; 24 h, MTT
  Survival rates (%): 50.67%
HepG2 cells [1]; 24 h, MTT, 570 nm
  OD Mean ± SD: 0.454 ± 0.092
HepG2 cells [1]; versus model group
  Cell survival rate increase (%): 32.2%
HepG2 cells [2]; 0.6% CCl4, 24 h, MTT
  Survival rates (%): 89.47%
HepG2 cells [2]; 0.6% CCl4, 24 h, MTT, 570 nm
  OD Mean ± SD: 0.819 ± 0.099
HepG2 cells [2]; 0.6% CCl4, versus model group
  Cell survival rate increase (%): 15.36%
